Experimental data from US20260108527A1, “POLO LIKE KINASE 4 INHIBITORS” (ORIC Pharmaceuticals, Inc., priority 2022, published 2026).

What was measured:
human recombinant PLK4 = molecular target: T1, human recombinant PLK4 (Homo sapiens, UniProt O00444); test: PLK4 Biochemical Assay (ADP-Glo); conditions: 0.5 nM PLK4, 8.0 μM ATP, 4.7 μM MBP, 6 hours at RT
T1 construct: purchased ThermoFisher PV6396
T1 sequence (O00444 1-970): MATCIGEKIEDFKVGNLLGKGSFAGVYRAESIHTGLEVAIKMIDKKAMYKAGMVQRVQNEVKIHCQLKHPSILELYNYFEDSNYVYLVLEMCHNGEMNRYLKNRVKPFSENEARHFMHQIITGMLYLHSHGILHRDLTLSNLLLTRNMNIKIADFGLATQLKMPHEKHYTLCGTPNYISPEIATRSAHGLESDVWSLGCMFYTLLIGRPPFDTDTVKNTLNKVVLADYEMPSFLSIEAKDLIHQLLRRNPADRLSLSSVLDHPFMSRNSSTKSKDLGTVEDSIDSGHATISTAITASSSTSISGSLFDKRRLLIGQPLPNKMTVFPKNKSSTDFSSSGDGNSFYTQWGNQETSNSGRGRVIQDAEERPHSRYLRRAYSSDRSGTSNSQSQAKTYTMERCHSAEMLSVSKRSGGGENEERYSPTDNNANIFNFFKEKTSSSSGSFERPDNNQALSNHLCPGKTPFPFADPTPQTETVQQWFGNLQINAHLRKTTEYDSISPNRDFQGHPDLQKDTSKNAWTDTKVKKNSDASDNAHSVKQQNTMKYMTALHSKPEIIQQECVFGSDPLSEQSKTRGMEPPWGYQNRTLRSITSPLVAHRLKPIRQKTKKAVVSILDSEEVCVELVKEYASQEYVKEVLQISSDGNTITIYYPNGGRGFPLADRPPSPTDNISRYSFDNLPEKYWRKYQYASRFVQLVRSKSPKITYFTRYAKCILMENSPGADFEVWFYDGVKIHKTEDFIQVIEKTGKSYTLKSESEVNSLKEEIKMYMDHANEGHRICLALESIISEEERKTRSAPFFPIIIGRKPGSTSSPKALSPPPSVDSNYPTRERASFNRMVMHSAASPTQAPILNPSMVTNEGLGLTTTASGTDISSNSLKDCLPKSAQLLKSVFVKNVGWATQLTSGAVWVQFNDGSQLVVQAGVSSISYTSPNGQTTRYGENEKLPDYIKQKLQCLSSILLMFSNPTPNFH
Procedure: Activity of human recombinant PLK4 (ThermoFisher, cat #PV6396) was measured by quantification of adenosine diphosphate (ADP) using the ADP-Glo Kinase Assay Kit (Promega, cat #V9102). […] 5 μL of 1.0 nM PLK4 protein in assay buffer (50 mM HEPES, pH 7.5, 0.01% Brij-35, 0.01% BSA, 10 mM MgCl2, 1 mM EGTA, 1 mM DTT) was added to the plates. Test compounds and PLK4 were incubated for 15 minutes at room temperature (RT). […] Reactions were stopped and the remaining ATP depleted by adding 10 μL of ADP-Glo reagent (Promega, cat #V912B) and incubating for 40 minutes at RT. The simultaneous conversion of the remaining ADP to ATP and measurement of the newly synthesized ATP was achieved by addition of 20 μL Kinase Detection reagent (Promega, cat #V914B), incubation for 30 min at RT, and luminescence detection using the EnVision plate reader (PerkinElmer). […] The IC50 values reported in Table 2 were determined using four parameter non-linear regression curve fit.

CHP134 = CHP134 CellTiter-Glo (CTG) Assay; assay type: cell-based; conditions: Homo sapiens, CHP-134, 120 h; viable cells by CellTiter-Glo after 5 days
Procedure: […] cells (DSMZ-German Collection of Microorganisms and Cell Cultures, Braunschweig Germany) were cultured in RPMI 1640 supplemented with 10% fetal bovine serum, penicillin (100 U/ml), 1% L-Glutamine and streptomycin ([…]). Cells were seeded (200 cells/well) in 384-well plates for 16 hours. On day two, nine serial 1:3 compound dilutions were made in DMSO in a 96-well plate. The compounds were then further diluted into growth media using a BRAVO robot (Agilent, Santa Clara, CA). The diluted compounds were then added to quadruplicate wells in the 384-well cell plate and incubated at 37° C. and 5% CO2. After 5 days, relative numbers of viable cells were measured by luminescence using CellTiter-Glo® (Promega) according to the manufacturer's instructions and read on a SPARK Multimode Microplate Reader (Tecan, Mannedorf Switzerland). The IC50 calculations for the values reported in Table 2 were carried out using Prism 6.0 software (GraphPad, San Diego).

[1] = molecular target: T2, human recombinant Aurora B (Homo sapiens, UniProt Q96GD4); test: Aurora B Kinase Biochemical Assay (ADP-Glo); conditions: selectivity ratio; Aurora B 10 nM, 114 μM ATP
T2 construct: purchased ThermoFisher PR9210B
T2 sequence (Q96GD4 whole entry): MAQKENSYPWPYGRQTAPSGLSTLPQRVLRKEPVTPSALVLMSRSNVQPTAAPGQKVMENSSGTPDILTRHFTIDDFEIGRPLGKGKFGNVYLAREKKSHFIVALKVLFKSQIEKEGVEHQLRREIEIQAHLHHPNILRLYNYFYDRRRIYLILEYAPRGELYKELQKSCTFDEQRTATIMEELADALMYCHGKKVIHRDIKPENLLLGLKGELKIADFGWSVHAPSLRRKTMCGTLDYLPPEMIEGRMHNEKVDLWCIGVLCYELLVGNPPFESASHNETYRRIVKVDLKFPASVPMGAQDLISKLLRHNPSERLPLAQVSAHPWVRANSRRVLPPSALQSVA
Procedure: Activity of human recombinant Aurora B (ThermoFisher, cat #PR9210B) was measured by quantification of adenosine diphosphate (ADP) using the ADP-Glo Kinase Assay Kit (Promega, cat #V9102). Test compounds were solubilized in dimethyl sulfoxide (DMSO) and dispensed into 384-well white polystyrene nonbinding plates (Greiner, cat #781094) using the Echo acoustic dispenser (Labcyte Inc.) in a 11-point 3-fold titration in duplicates. 5 μL of 20 nM Aurora B in assay buffer (50 mM HEPES, pH 7.5, 0.01% Brij-35, 0.01% BSA, 10 mM MgCl2, 1 mM EGTA, 1 mM DTT) was added to the plates. Test compounds and Aurora B were incubated for 15 minutes at room temperature (RT). Then 5 μL of a 228 μM adenosine triphosphate (ATP) (Promega, cat #V915B) and 9.3 μM Myelin Basic Protein (MBP) (SignalChem, cat #M42-51N) substrate solution in assay buffer was added and the reaction mixture was incubated for 2 hours at RT. The final concentration of Aurora b, ATP and MBP in the reactions were 10 nM, 114 μM and 4.7 μM, respectively. Reactions were stopped and the remaining ATP depleted by adding 10 μL of ADP-Glo reagent (Promega, cat #V912B) and incubating for 40 minutes at RT. The simultaneous conversion of the remaining ADP to ATP and measurement of the newly synthesized ATP was achieved by addition of 20 μL Kinase Detection reagent (Promega, cat #V9141B), incubation for 30 min at RT, and luminescence detection using the EnVision plate reader (PerkinElmer). Reactions lacking Aurora B were used as […]. Reactions containing DMSO alone were used as […]. The IC50 values reported in Table 2 were determined using four parameter non-linear regression curve fit.

| SMILES | IC50 (human recombinant PLK4) [nM] | IC50 (CHP134) [nM] | [Aurora B IC50 (nM)]/[PLK4 IC50 (nM)] [1] |
| --- | --- | --- | --- |
| COc1ccc2c(c1)[C@]1(C[C@H]1c1ccc3c(Nc4cc(-c5ccsn5)ccc4OC)n[nH]c3c1)C(=O)N2 [Example 30, (1R,2S)-5′-methoxy-2-{3-[2-methoxy-5-(1,2-thiazol-3-yl)anilino]-1H-indazol-6-yl}spiro[cyclopropane-1,3′-indol]-2′(1′H)-one] | 0.694 | 97.4 | 1970.3298 |
| CCOc1cc(-c2cn(C)cn2)ccc1Nc1n[nH]c2cc([C@@H]3C[C@@]34C(=O)Nc3ccc(OC)cc34)ccc12 [Example 29, (1R,2S)-2-{3-[2-ethoxy-4-(1-methyl-1H-imidazol-4-yl)anilino]-1H-indazol-6-yl}-5′-methoxyspiro[cyclopropane-1,3′-indol]-2′(1′H)-one] | 1.95 | 466 | 211.2020 |
| CCOc1ncc(-c2nccs2)nc1Nc1n[nH]c2cc([C@@H]3C[C@@]34C(=O)Nc3ccc(OC)cc34)ccc12 [Example 35, (1R,2S)-2-(3-{[3-ethoxy-6-(1,3-thiazol-2-yl)pyrazin-2-yl]amino}-1H-indazol-6-yl)-5′-methoxyspiro[cyclopropane-1,3′-indol]-2′(1′H)-one] | 0.338 | 13.8 | 2740.5325 |
| COc1ccc2c(c1)[C@]1(C[C@H]1c1ccc3c(Nc4ccc(C(C)=O)cc4OC)n[nH]c3c1)C(=O)N2 [Example 3, (1R,2S)-2-[3-(4-acetyl-2-methoxyanilino)-1H-indazol-6-yl]-5′-methoxyspiro[cyclopropane-1,3′-indol]-2′(1′H)-one] | 2.76 | 308 | 256.2681 |
| CCOc1cnc(-c2nccs2)cc1Nc1n[nH]c2cc([C@@H]3C[C@@]34C(=O)Nc3ccc(OC)cc34)ccc12 [Example 34, (1R,2S)-2-(3-{[5-ethoxy-2-(1,3-thiazol-2-yl)pyridin-4-yl]amino}-1H-indazol-6-yl)-5′-methoxyspiro[cyclopropane-1,3′-indol]-2′(1′H)-one] | 1.07 | 139 | 46598.3224 |
| CCS(=O)(=O)c1ccc(Nc2n[nH]c3cc([C@@H]4C[C@@]45C(=O)Nc4ccc(OC)cc45)ccc23)c(OC)c1 [Example 5, (1R,2S)-2-{3-[4-(ethanesulfonyl)-2-methoxyanilino]-1H-indazol-6-yl}-5′-methoxyspiro[cyclopropane-1,3′-indol]-2′(1′H)-one] | 0.708 | 39.1 | 238.2702 |
| CCOc1cnc(C#CC(C)(C)O)nc1Nc1n[nH]c2cc([C@@H]3C[C@@]34C(=O)Nc3ccc(OC)cc34)ccc12 [Example 45, (1R,2S)-2-(3-((5-ethoxy-2-(3-hydroxy-3-methylbut-1-yn-1-yl)pyrimidin-4-yl)amino)-1H-indazol-6-yl)-5′-methoxyspiro[cyclopropane-1,3′-indolin]-2′-one] | 0.139 | 890 | 8798.5611 |
| CCOc1cc(-n2cncn2)ccc1Nc1n[nH]c2cc([C@@H]3C[C@@]34C(=O)Nc3ccc(OC)cc34)ccc12 [Example 10, (1R,2S)-2-{3-[2-ethoxy-4-(1H-1,2,4-triazol-1-yl)anilino]-1H-indazol-6-yl}-5′-methoxyspiro[cyclopropane-1,3′-indol]-2′(1′H)-one] | 0.557 | 120 | 396.7684 |
| COc1ccc2c(c1)[C@]1(C[C@H]1c1ccc3c(Nc4cc(-c5ccon5)ccc4OC)n[nH]c3c1)C(=O)N2 [Example 32, (1R,2S)-5′-methoxy-2-{3-[2-methoxy-5-(1,2-oxazol-3-yl)anilino]-1H-indazol-6-yl}spiro[cyclopropane-1,3′-indol]-2′(1′H)-one] | 0.827 | 106 | 1218.8633 |
